Measured values from US20240197715A1, “PHARMACEUTICAL COMBINATIONS AND USES THEREOF” (NOVARTIS AG, priority 2022, published 2024).
Several values for one entry are separate records, joined by “and”; a condition that tells them apart may be missing. Identical values can stand only once.

Experiments:
Format in all cases: in vivo
[1] = test system: SW620 (CCL-227, ATCC) MSS colorectal carcinoma xenografts; test: SW620 MSS CRC xenograft efficacy in nude mice; details: SW620; TMZ p.o. 5 consecutive days within 21 days cycle (100 mg/kg)
Experimental: SW620 (CCL-227, ATCC) [MSS colorectal carcinoma (CRC)] was cultured in DMEM (#1-26F01-I, AMIMED) supplemented with 10% FCS (#2-0-1F30-I, BioConcept), 4 mM L-glutamine (#5-10K50-H, BioConcept) and 1 mM Sodium pyruvate (#5-60F00-H, BioConcept). Cells were passaged by washing first with Dulbecco's PBS without Ca^2+/Mg^2+ (#3-05F29-1, AMIMED), trypsinising cells with Trypsin 0.05% in PBS with EDTA (#5-51F00-H, AMIMED), centrifuging in the respective culture media, and splitting cells into fresh media at a ratio of 1:8, 2 times per week.
Athymic nude mice (Charles River, Germany) were allowed to adapt for 7 days upon arrival at the animal facility and housed in a pathogen-controlled environment (5 mice/Type III cage) with access to food and water ad libitum. Animals were identified with transponders. Studies described in this report were performed according to procedures covered by a permit number issued by the Kantonales Veterinäramt Basel-Stadt.
Subcutaneous tumors were initiated by injecting 5.0×10^6 SW620 tumor cells in 50% Matrigel (#354234, Corning) in HBSS (#H6648, SIGMA) in the right flank of nude mice. The efficacy experiment (n=6), started 11 days post-cell injection.
Compound A and Temozolomide were made-up fresh on a weekly basis and kept at 4° C. and protected from light. Compound A was dissolved in 20% Hydroxypropyl-ß-Cyclodextrine (HP-ß-CD, #H107-100G, SIGMA) in UltraPure™ Water (#10977-035, Invitrogen) and administered p.o. at 10 ml/kg. Temozolomide was dissolved in 30% PEG-400 (#202398-500G, SIGMA) and 70% Dulbecco's PBS without Ca^2+/Mg^2+ (#3-05F29-1, AMIMED) and administered p.o. at 10 mL/kg on 5 consecutive days within a 21 days cycle. Irinotecan was made-up fresh for each treatment once a week by diluting with NaCl 0.9% (#3-06S00-I, BioConcept). The solution was administered i.v. at 5 mL/kg.
(§1) Tumor volumes (TVol), determined from caliper measurements (using the formula I*w2*π/6) were measured two times per week. Tumor response was quantified by the change in tumor volume (endpoint minus starting value in mm^3) as the T/C (the ratio between the tumor volume in the treated group and in the untreated control group). In the case of a tumor regression or to assess the percentage of change in TVol, the tumor response was quantified by the percentage of regression of the starting TVol. The body-weight (BW) of the animal was measured three times per week allowing calculation at any particular time-point relative to the day of initiation of treatment (day 0) of the percentage change in BW (4% BW).
At day 43 post-cell injection, irinotecan was administered intravenously at 15 mg/kg once weekly for 7 weeks in combination with Compound A, also administered from day 43, orally at 120 mg/kg daily for 52 days.
Starting 11 days post-cell injection, temozolomide was administered orally on a 21 day cycle of 5 consecutive days at 100 mg/kg on 5 consecutive days (day 11 to day 15 and day 32 to day 36). At day 43 post-cell injection, to the first group irinotecan was administered intravenously at 15 mg/kg once weekly for 6 weeks, and to the second group irinotecan was administered intravenously at 15 mg/kg once weekly for 6 weeks in combination with Compound A, also administered from day 43, orally at 120 mg/kg daily for 46 days.

[2] = Body weight / tolerability in SHP-77 tumor-bearing nude mice; details: SHP-77 study; single agent
Experimental: as §1, with “I*w2*TT/6)” for “I*w2*π/6)”, “T/C.” for “T/C (the ratio between the tumor volume in the treated group and in the untreated control group).”

[3] = test system: SHP-77 (CRL-2195, ATCC) MSS small cell lung carcinoma xenografts; test: SHP-77 MSS SCLC xenograft efficacy in nude mice; details: SHP77; TMZ 25 mg/kg p.o. 5 consecutive days within 28 days cycle
Experimental: SHP-77 (CRL-2195, ATCC) is a MSS small cell lung carcinoma (SCLC). It was cultured in RPMI 1640 Medium, GlutaMAX™ (#61870036, GIBCO) supplemented with 10% FCS (#2-O-1F30-I, BioConcept). Cells were passaged by washing first with Dulbecco's PBS without Ca^2+/Mg^2+ (#3-05F29-1, AMIMED), trypsinising cells with Trypsin 0.05% in PBS with EDTA (#5-51F00-H, AMIMED), centrifuging in the respective culture media, and splitting cells into fresh media at a ratio of 1:8, 2 times per week.
Athymic nude mice (Charles River, Germany) were allowed to adapt for 7 days upon arrival at the animal facility and housed in a pathogen-controlled environment (5 mice/Type III cage) with access to food and water ad libitum. Animals were identified with transponders. […]
as §1, with “I*w2*TT/6)” for “I*w2*π/6)”, “T/C.” for “T/C (the ratio between the tumor volume in the treated group and in the untreated control group).”

[4] = Body weight / tolerability in SW620 tumor-bearing nude mice; details: SW620 study; 21-days TMZ cycle
Experimental: as §1

[5] = Body weight / tolerability in T84 tumor-bearing nude mice; details: T84 study; 28-days TMZ cycle
Experimental: as §1, with “I*w2*TT/6)” for “I*w2*π/6)”, “T/C.” for “T/C (the ratio between the tumor volume in the treated group and in the untreated control group).”

## Cn1nnc2c(C(N)=O)ncn2c1=O [temozolomide]
[1]
  tumor regression after 1 cycle of temozolomide: 30-50% and 40%
[2]
  tolerability: well tolerated
[3]
  tumor regression after 2 cycles: 90%
[4]
  body weight change: dose-dependent body weight loss but mice always recovered at the end of the 21-days cycle
[5]
  body weight change: slight body weight loss but mice always recovered at the end of the 28-days cycle
